Experimental data reported in US20260176320A1, “MODULATORS OF G-PROTEIN COUPLED RECEPTORS” (priority 2018, published 2026).
Like-named read-outs stand apart in the source and are kept apart here. Square brackets hold non-standard residues; d marks the D form. Peptide text beside a SMILES is read from it. * marks the point of attachment. X1 = O=C(CSCC(=O)*)NCCN1C(=O)c2ccccc2C1=O; Aib = CC(C)(N)C(=O)O

Assays:
GLP-1R = GLP-1R (Homo sapiens, UniProt P43220); experiment: HitHunter cAMP assay (GLP-1R); assay type: cell-based; settings: cAMP; for Emax: read-out: (Emax) GLP-1R
Method in brief: (§1)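 Suspension cells (10,000/well) in HBSS with 10 mM HEPES, 625 μM IBMX, 0.2% BSA exposed to 22-point 2-fold agonist series in duplicate for 30 min at room temperature. cAMP measured by antibody immunocompetition with overnight development, luminescence read-out.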

GIP-R = target: T1, GIP-R (Homo sapiens, UniProt P48546); experiment: HitHunter cAMP assay (GIP-R); assay type: cell-based; settings: cAMP; for Emax: read-out: (Emax) GIP-R
T1 sequence (P48546 22-466): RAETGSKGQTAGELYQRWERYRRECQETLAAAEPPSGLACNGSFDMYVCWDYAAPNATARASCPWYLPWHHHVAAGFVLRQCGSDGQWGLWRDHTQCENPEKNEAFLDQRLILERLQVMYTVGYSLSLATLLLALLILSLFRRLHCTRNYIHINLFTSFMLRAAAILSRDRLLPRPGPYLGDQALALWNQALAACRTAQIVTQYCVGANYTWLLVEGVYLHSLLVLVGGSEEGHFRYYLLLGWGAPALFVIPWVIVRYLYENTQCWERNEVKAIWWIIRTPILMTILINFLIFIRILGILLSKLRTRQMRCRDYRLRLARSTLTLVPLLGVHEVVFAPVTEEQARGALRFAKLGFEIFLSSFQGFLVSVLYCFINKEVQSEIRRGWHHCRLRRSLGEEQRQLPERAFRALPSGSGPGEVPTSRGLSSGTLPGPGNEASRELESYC
Method in brief: as §1

[1] = Table 3, read-out: EC50 GLP-1R/nM
[2] = Table 3A, read-out: EC50 GLP-1R/nM
[3] = Table 3, read-out: EC50 GIP-R/nM
[4] = Table 3A, read-out: EC50 GIP-R/nM

Sequence of GLP-1R (P43220 24-463): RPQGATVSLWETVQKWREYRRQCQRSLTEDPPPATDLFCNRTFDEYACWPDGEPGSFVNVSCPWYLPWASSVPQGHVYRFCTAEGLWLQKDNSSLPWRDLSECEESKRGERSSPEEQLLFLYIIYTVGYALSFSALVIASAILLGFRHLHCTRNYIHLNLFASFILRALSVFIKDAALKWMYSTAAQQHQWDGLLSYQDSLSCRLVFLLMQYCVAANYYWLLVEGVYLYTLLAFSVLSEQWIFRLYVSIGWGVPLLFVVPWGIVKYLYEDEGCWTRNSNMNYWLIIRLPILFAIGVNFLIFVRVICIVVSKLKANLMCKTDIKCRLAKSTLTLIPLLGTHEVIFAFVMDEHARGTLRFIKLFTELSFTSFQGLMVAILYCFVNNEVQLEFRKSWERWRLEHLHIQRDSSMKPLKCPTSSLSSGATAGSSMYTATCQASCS

Compound	Emax (GLP-1R; Table 3) [%]	EC50 (GLP-1R; [1]) [nM]	Emax (GLP-1R; Table 3A) [%]	EC50 (GLP-1R; [2]) [nM]	Emax (GIP-R; Table 3) [%]	EC50 (GIP-R; [3]) [nM]	Emax (GIP-R; Table 3A) [%]	EC50 (GIP-R; [4]) [nM]	EC50 (GLP-1R; EC50 GLP-1R/nM, Table 3A) [nM]	EC50 (GIP-R; EC50 GIP-R/nM, Table 3A) [nM]	EC50 (GLP-1R; EC50 GLP-1R/nM, Table 3) [nM]	EC50 (GIP-R; EC50 GIP-R/nM, Table 3) [nM]	EC50 (GIP-R; read-out: EC50 GIP-R/nM, Table 3) [nM]	EC50 (GIP-R; read-out: EC50 GIP-R/nM, Table 3A) [nM]
CCCCCCCCCCCCCCCC(=O)N[C@@H](CCC(=O)NCCCC[C@H](NC(=O)[C@H](CO)NC(=O)[C@@H]1CCCN1C(=O)[C@@H]1CCCN1C(=O)[C@@H]1CCCN1C(=O)[C@H](C)NC(=O)CNC(=O)[C@H](CO)NC(=O)[C@H](CO)NC(=O)[C@@H]1CCCN1C(=O)CNC(=O)CNC(=O)[C@H](C)NC(=O)[C@H](CC(C)C)NC(=O)[C@H](CC(C)C)NC(=O)[C@H](Cc1c[nH]c2ccccc12)NC(=O)[C@H](CC(N)=O)NC(=O)[C@@H](NC(=O)[C@H](Cc1ccccc1)NC(=O)[C@H](CCC(=O)O)NC(=O)C(C)(C)NC(=O)[C@H](C)NC(=O)[C@H](C)NC(=O)[C@H](CCC(N)=O)NC(=O)[C@H](CCCCN)NC(=O)[C@H](CC(=O)O)NC(=O)[C@H](CC(C)C)NC(=O)[C@H](Cc1ccc(O)cc1)NC(=O)[C@@H](NC(=O)[C@H](CO)NC(=O)[C@H](Cc1ccc(O)cc1)NC(=O)[C@H](CC(=O)O)NC(=O)[C@H](CO)NC(=O)[C@@H](NC(=O)[C@H](Cc1ccccc1)NC(=O)[C@@H](NC(=O)CNC(=O)[C@H](CCC(=O)O)NC(=O)CCNC(=O)CCCN1C(=O)c2ccccc2C1=O)[C@@H](C)O)[C@@H](C)O)[C@@H](C)CC)C(C)C)C(N)=O)C(=O)O [Compound 115]	91	1 to 10	91	1 to 10	67	1 to 10	67	1 to 10	–	–	–	–	–	–
CCCCCCCCCCCCCCCC(=O)N[C@@H](CCC(=O)NCCCC[C@H](NC(=O)[C@H](CO)NC(=O)[C@@H]1CCCN1C(=O)[C@@H]1CCCN1C(=O)[C@@H]1CCCN1C(=O)[C@H](C)NC(=O)CNC(=O)[C@H](CO)NC(=O)[C@H](CO)NC(=O)[C@@H]1CCCN1C(=O)CNC(=O)CNC(=O)[C@H](C)NC(=O)[C@H](CC(C)C)NC(=O)[C@H](CC(C)C)NC(=O)[C@H](Cc1c[nH]c2ccccc12)NC(=O)[C@H](CC(N)=O)NC(=O)[C@@H](NC(=O)[C@H](Cc1ccccc1)NC(=O)[C@H](CCC(=O)O)NC(=O)C(C)(C)NC(=O)[C@H](C)NC(=O)[C@H](C)NC(=O)[C@H](CCC(N)=O)NC(=O)[C@H](CCCCN)NC(=O)[C@H](CC(=O)O)NC(=O)[C@H](CC(C)C)NC(=O)[C@H](Cc1ccc(O)cc1)NC(=O)[C@@H](NC(=O)[C@H](CO)NC(=O)[C@H](Cc1ccc(O)cc1)NC(=O)[C@H](CC(=O)O)NC(=O)[C@H](CO)NC(=O)[C@@H](NC(=O)[C@H](Cc1ccccc1)NC(=O)[C@@H](NC(=O)CNC(=O)[C@H](CCC(=O)O)NC(=O)CSCC(=O)NCCN1C(=O)[C@@H]2C=C[C@H]1C2)[C@@H](C)O)[C@@H](C)O)[C@@H](C)CC)C(C)C)C(N)=O)C(=O)O [Compound 290]	–	–	100	–	–	–	10	–	< 0.1	10 to 100	–	–	–	–
CC[C@H](C)[C@H](NC(=O)[C@H](CO)NC(=O)[C@H](Cc1ccc(O)cc1)NC(=O)[C@H](CC(=O)O)NC(=O)[C@H](CO)NC(=O)[C@@H](NC(=O)[C@H](Cc1ccccc1)NC(=O)[C@@H](NC(=O)CNC(=O)[C@H](CCC(=O)O)NC(=O)CC(=O)NCCCN1C(=O)c2ccccc2C1=O)[C@@H](C)O)[C@@H](C)O)C(=O)N[C@@H](Cc1ccc(O)cc1)C(=O)N[C@@H](CC(C)C)C(=O)N[C@@H](CC(=O)O)C(=O)N[C@@H](CCCCN)C(=O)N[C@@H](CCC(N)=O)C(=O)N[C@@H](C)C(=O)N[C@@H](C)C(=O)NC(C)(C)C(=O)N[C@@H](CCC(=O)O)C(=O)N[C@@H](Cc1ccccc1)C(=O)N[C@H](C(=O)N[C@@H](CC(N)=O)C(=O)N[C@@H](Cc1c[nH]c2ccccc12)C(=O)N[C@@H](CC(C)C)C(=O)N[C@@H](CC(C)C)C(=O)N[C@@H](C)C(=O)NCC(=O)NCC(=O)N1CCC[C@H]1C(=O)N[C@@H](CO)C(=O)N[C@@H](CO)C(=O)NCC(=O)N[C@@H](C)C(=O)N1CCC[C@H]1C(=O)N1CCC[C@H]1C(=O)N1CCC[C@H]1C(=O)N[C@@H](CO)C(=O)N[C@@H](CCCCN)C(N)=O)C(C)C [Compound 125]	94 to 100	10 to 100	94 to 100	10 to 100	54 to 60	1 to 10	54 to 60	1 to 10	–	–	–	–	–	–
CC[C@H](C)[C@H](NC(=O)[C@H](CO)NC(=O)[C@H](Cc1ccc(O)cc1)NC(=O)[C@H](CC(=O)O)NC(=O)[C@H](CO)NC(=O)[C@@H](NC(=O)[C@H](Cc1ccccc1)NC(=O)[C@@H](NC(=O)CNC(=O)[C@H](CCC(=O)O)NC(=O)CC(=O)NCCN1C(=O)c2ccc(C)cc2C1=O)[C@@H](C)O)[C@@H](C)O)C(=O)N[C@@H](Cc1ccc(O)cc1)C(=O)N[C@@H](CC(C)C)C(=O)N[C@@H](CC(=O)O)C(=O)N[C@@H](CCCCN)C(=O)N[C@@H](CCC(N)=O)C(=O)N[C@@H](C)C(=O)N[C@@H](C)C(=O)NC(C)(C)C(=O)N[C@@H](CCC(=O)O)C(=O)N[C@@H](Cc1ccccc1)C(=O)N[C@H](C(=O)N[C@@H](CC(N)=O)C(=O)N[C@@H](Cc1c[nH]c2ccccc12)C(=O)N[C@@H](CC(C)C)C(=O)N[C@@H](CC(C)C)C(=O)N[C@@H](C)C(=O)NCC(=O)NCC(=O)N1CCC[C@H]1C(=O)N[C@@H](CO)C(=O)N[C@@H](CO)C(=O)NCC(=O)N[C@@H](C)C(=O)N1CCC[C@H]1C(=O)N1CCC[C@H]1C(=O)N1CCC[C@H]1C(=O)N[C@@H](CO)C(=O)N[C@@H](CCCCN)C(N)=O)C(C)C [Compound 126]	84	–	84	–	42 to 51	–	42 to 51	–	10 to 100	10 to 100	10 to 100	10 to 100	–	–
CC[C@H](C)[C@H](NC(=O)[C@H](CO)NC(=O)[C@H](Cc1ccc(O)cc1)NC(=O)[C@H](CC(=O)O)NC(=O)[C@H](CO)NC(=O)[C@@H](NC(=O)[C@H](Cc1ccccc1)NC(=O)[C@@H](NC(=O)CNC(=O)[C@H](CCC(=O)O)NC(=O)CSCC(=O)NCCN1C(=O)c2ccccc2C1=O)[C@@H](C)O)[C@@H](C)O)C(=O)N[C@@H](Cc1ccc(O)cc1)C(=O)N[C@@H](CC(C)C)C(=O)N[C@@H](CC(=O)O)C(=O)N[C@@H](CCC(=O)O)C(=O)N[C@@H](CCC(N)=O)C(=O)N[C@@H](C)C(=O)N[C@@H](C)C(=O)NC(C)(C)C(=O)N[C@@H](CCC(=O)O)C(=O)N[C@@H](Cc1ccccc1)C(=O)N[C@H](C(=O)N[C@@H](CC(N)=O)C(=O)N[C@@H](Cc1c[nH]c2ccccc12)C(=O)N[C@@H](CC(C)C)C(=O)N[C@@H](CC(C)C)C(=O)N[C@@H](C)C(=O)NCC(=O)NCC(=O)N1CCC[C@H]1C(=O)N[C@@H](CO)C(=O)N[C@@H](CO)C(=O)NCC(=O)N[C@@H](C)C(=O)N1CCC[C@H]1C(=O)N1CCC[C@H]1C(=O)N1CCC[C@H]1C(=O)N[C@@H](CO)C(=O)N[C@@H](CCCCN)C(N)=O)C(C)C [Compound 150] (X1-EGTFTSDYSIYLDEQAA[Aib]EFVNWLLAGGPSSGAPPPSK-NH2)	95 to 113	–	95 to 113	–	–	–	118 to 130	–	1 to 10	–	1 to 10	–	< 1	< 1
CCCCCCCCCCCCCCCC(=O)N[C@@H](CCC(=O)NCCCC[C@H](NC(=O)[C@H](CO)NC(=O)[C@@H]1CCCN1C(=O)[C@@H]1CCCN1C(=O)[C@@H]1CCCN1C(=O)[C@H](C)NC(=O)CNC(=O)[C@H](CO)NC(=O)[C@H](CO)NC(=O)[C@@H]1CCCN1C(=O)CNC(=O)CNC(=O)[C@H](C)NC(=O)[C@H](CC(C)C)NC(=O)[C@H](CC(C)C)NC(=O)[C@H](Cc1c[nH]c2ccccc12)NC(=O)[C@H](CC(N)=O)NC(=O)[C@@H](NC(=O)[C@H](Cc1ccccc1)NC(=O)[C@H](CCC(=O)O)NC(=O)C(C)(C)NC(=O)[C@H](C)NC(=O)[C@H](C)NC(=O)[C@H](CCC(N)=O)NC(=O)[C@H](CCCCN)NC(=O)[C@H](CC(=O)O)NC(=O)[C@H](CC(C)C)NC(=O)[C@H](Cc1ccc(O)cc1)NC(=O)[C@@H](NC(=O)[C@H](CO)NC(=O)[C@H](Cc1ccc(O)cc1)NC(=O)[C@H](CC(=O)O)NC(=O)[C@H](CO)NC(=O)[C@@H](NC(=O)[C@H](Cc1ccccc1)NC(=O)[C@@H](NC(=O)CNC(=O)[C@H](CCC(=O)O)NC(=O)CSCC(=O)NCCN1Cc2ccccc2CC1=O)[C@@H](C)O)[C@@H](C)O)[C@@H](C)CC)C(C)C)C(N)=O)C(=O)O [Compound 270]	–	–	90	–	–	–	90	–	1 to 10	1 to 10	–	–	–	–
